We go through eight sequences from patent publication US10793599B2, “MPHOSPH1-derived peptide, and vaccine including same” (OncoTherapy Science, Inc., priority 2015, dated 2020).

Entries after “also recorded” stand apart in the source; their conditions may differ.

Common to all, as to assay type: cell-based, human
Test [1] relates to peptide-pulsed C1R-A33. Kind of test: In vitro CTL induction, IFN-gamma ELISPOT assay (HLA-A*33:03). To be noted: CD8 positive T cells of HLA-A*33:03-positive donors after three stimulations with peptide-pulsed DCs, against peptide-pulsed C1R-A33. As to the method: (§1) Monocyte-derived dendritic cells (DCs) were used as the antigen-presenting cell to induce a specific cytotoxic T lymphocyte (CTL) response against peptides presented on human leukocyte antigens (HLAs). As already reported in literatures, DCs were generated in vitro (Nakahara S et al., Cancer Res 2003, 63(14): 4112-8). Specifically, peripheral-blood mononuclear cells (PBMCs) collected from healthy volunteers (HLA-A*33:03-positive) with the Ficoll-Paque plus solution (Pharmacia) were seeded in plastic tissue culture dishes (Corning) to let the monocytes in the PBMCs adhere to the dishes. This was cultured in the presence of 1000 IU/ml granulocyte macrophage colony-stimulating factor (R&D System) and 1000 IU/ml interleukin (IL)-4 (R&D System) for seven days. An AIM-V medium (Invitrogen) containing 5% inactivated AB-type serum (ABS) was used as the medium. DCs that were induced to differentiate from monocytes using the cytokines were pulsed with 20 micro-g/ml of each synthesized peptide (37 degrees C., three hours). Peptide pulsing was carried out in an AIM-V medium containing 3 micro-g/ml beta 2-microglobulin. These peptide-pulsed DCs were inactivated by X-ray irradiation (20 Gy), mixed in a 1:20 ratio with autologous CD8 positive T cells obtained by positive selection using the CD8 Positive Isolation Kit (Invitrogen) (1.5×10^4 DCs and 3×10^5 CD8 positive T cells), and cultured in a 48-well plate (Corning). Each well contained 0.5 ml of the 5% ABS/AIM-V medium, and IL-7 (R&D System) was added there (final concentration: 10 ng/ml). Two days after the start of the culture, IL-2 (Novartis) was added (final concentration: 20 IU/ml). On day 7 and day 14 of culture, the CD8 positive T cells were further stimulated with peptide-pulsed DCs. The DCs were prepared at the time of use by the same method as above. After day 21 (after three DC stimulations), IFN-gamma production against the peptide-pulsed C1R-A33 was confirmed using human interferon (IFN)-gamma enzyme-linked immunospot (ELISPOT) assay (Tanaka H et al., Br J Cancer 2001, 84(1): 94-9; Umano Y et al., Br J Cancer 2001, 84(8): 1052-7: Uchida N et al., Clin Cancer Res 2004, 10(24): 8577-86; Suda T et al., Cancer Sci 2006, 97(5): 411-9; Watanabe T et al., Cancer Sci 2005, 96(8): 498-506).
(§2) Peptide-pulsed C1R-A33 (1×10^4 cells/well) was prepared as the target cell. The IFN-gamma ELISPOT assay and IFN-gamma ELISA assay were performed according to the assay kit manufacturer's manual.

The test system of test [2] is peptide-pulsed C1R-A11. The test is described as follows: In vitro CTL induction, IFN-gamma ELISPOT assay (HLA-A*11:01). To be noted: CD8 positive T cells of HLA-A*11:01-positive donors after three stimulations with peptide-pulsed DCs, against peptide-pulsed C1R-A11. As to the method:
as §1, with “(HLA-A*11:01-positive)” for “(HLA-A*33:03-positive)”, “thereto” for “there”, “C1R-A11” for “C1R-A33”, “1052-7;” for “1052-7:”
(§3) Peptide-pulsed C1R-A11 (1×10^4 cells/well) was prepared as the target cell. The IFN-gamma ELISPOT assay and IFN-gamma ELISA were performed according to the assay kit manufacturer's manual.

The test system of test [3] is peptide-pulsed C1R-A11. The test is described as follows: IFN-gamma ELISA of CTL lines and CTL clones (HLA-A*11:01). To be noted: listed as MPHOSPH1-A11-9-1227. As to the method:
(§4) CTLs were propagated using methods similar to those reported by Riddell et al. (Walter E A et al., N Engl J Med 1995, 333(16): 1038-44; Riddell S R et al., Nat Med 1996, 2(2): 216-23). The CTLs were cultured in 25 ml 5% ABS/AIM-V medium together with two types of Mitomycin C-treated human B lymphoblastoid cell lines (5×10^6 cells/25 ml medium each) and an anti-CD3 antibody (final concentration: 40 ng/ml). On the day after beginning of the culturing, IL-2 (final concentration: 120 IU/ml) was added to the culture. On days 5, 8 and 11, the medium was changed to a 5% ABS/AIM-V medium containing IL-2 (final concentration: 30 IU/ml) (Tanaka H et al., Br J Cancer 2001, 84(1): 94-9; Umano Y et al., Br J Cancer 2001, 84(8): 1052-7; Uchida N et al., Clin Cancer Res 2004, 10(24): 8577-86; Suda T et al., Cancer Sci 2006, 97(5): 411-9; Watanabe T et al., Cancer Sci 2005, 96(8): 498-506).
After induction of CTLs in vitro, the CTLs were seeded onto 96 round-bottomed microtiter plates (Nalge Nunc International) at 1 cell/well or 10 cells/well. The CTLs were cultured with two types of Mitomycin C-treated human B lymphoblastoid cell lines (1×10^4 cells/well each) in a total of 150 micro-1/well 5% ABS/AIM-V medium with an anti-CD3 antibody (final concentration: 30 ng/ml) and IL-2 (final concentration: 125 IU/ml). Ten days later, 50 micro-15% ABS/AIM-V medium containing 500 IU/ml IL-2 was added to the culture. […].
as §3
(In general: An ELISA detects its analyte on a solid surface through an enzyme-linked reagent.)

The test system of test [4] is peptide-pulsed C1R-A33. Kind of test: IFN-gamma ELISA of CTL lines and CTL clones (HLA-A*33:03). The conditions noted are these: listed as MPHOSPH1-A33-10-57. As to the method: as §4
After induction of CTLs in vitro, the CTLs were seeded onto 96 round-bottomed microtiter plates (Nalge Nunc International) at 1 cell/well or 10 cells/well. The CTLs were cultured with two types of Mitomycin C-treated human B lymphoblastoid cell lines (1×10^4 cells/well each) in a total of 150 micro-l/well 5% ABS/AIM-V medium with an anti-CD3 antibody (final concentration: 30 ng/ml) and IL-2 (final concentration: 125 IU/ml). Ten days later, 50 micro-l 5% ABS/AIM-V medium containing 500 IU/ml IL-2 was added to the culture.
as §2

Take “DLQKWREER (a peptide derived from MPHOSPH1) [SEQ ID NO: 119]”: in test [1] (listed as MPHOSPH1-A33-9-1474), the “peptide-specific IFN-gamma production (ELISPOT)” value is recorded as “Peptide-specific IFN-gamma production was observed”. As for “TINEFQNLK (a peptide derived from MPHOSPH1) [SEQ ID NO: 4]”, the “peptide-specific IFN-gamma production (ELISPOT)” value in test [2] (listed as MPHOSPH1-A11-9-739) is reported as “peptide-specific IFN-gamma production was not observed”.

For “SIIGVNLATK (a peptide derived from MPHOSPH1) [SEQ ID NO: 53]”, the “peptide-specific IFN-gamma production (ELISPOT)” value in test [2] (listed as MPHOSPH1-A11-10-1675) is “Peptide-specific IFN-gamma production was observed”. Regarding “CILGRLSEK (a peptide derived from MPHOSPH1) [SEQ ID NO: 27]”, in test [2] (listed as MPHOSPH1-A11-9-96), the “peptide-specific IFN-gamma production (ELISPOT)” value was “Peptide-specific IFN-gamma production was observed”. In the case of “SSARTQNLK (a peptide derived from MPHOSPH1) [SEQ ID NO: 12]”, the “peptide-specific IFN-gamma production of CTL clone (ELISA)” value in test [3] (CTL clone by limiting dilution, against C1R-A11 pulsed with the peptide) is listed as “showed a peptide-specific IFN-gamma production”. For the same sequence, the “IFN-gamma production by CTL line (ELISA)” value in test [3] (CTL line against C1R-A11 pulsed with the peptide) is “CTL lines that produce IFN-gamma in a peptide-specific manner were established; also recorded: observed”. Also, in test [2] (listed as MPHOSPH1-A11-9-1227), the “peptide-specific IFN-gamma production (ELISPOT)” value was “Peptide-specific IFN-gamma production was observed”. With “SSKKTYSLR (a peptide derived from MPHOSPH1) [SEQ ID NO: 48]”, in test [1] (listed as MPHOSPH1-A33-9-1663), the “peptide-specific IFN-gamma production (ELISPOT)” value is “peptide-specific IFN-gamma production was not observed”. Take “TSSLIINNK (a peptide derived from MPHOSPH1) [SEQ ID NO: 5]”: the “peptide-specific IFN-gamma production (ELISPOT)” value in test [2] (listed as MPHOSPH1-A11-9-762) is listed as “Peptide-specific IFN-gamma production was observed”. “DYLQVCLRIR (a peptide derived from MPHOSPH1) [SEQ ID NO: 170]”: in test [1] (listed as MPHOSPH1-A33-10-57), the “peptide-specific IFN-gamma production (ELISPOT)” value was “Peptide-specific IFN-gamma production was observed”. Further, the “peptide-specific IFN-gamma production of CTL clone (ELISA)” value in test [4] (CTL clone by limiting dilution, against C1R-A33 pulsed with the peptide) is reported as “showed a peptide-specific IFN-gamma production”. Besides, in test [4] (CTL line against C1R-A33 pulsed with the peptide), the “IFN-gamma production by CTL line (ELISA)” value is listed as “CTL lines that produce IFN-gamma in a peptide-specific manner were established; also recorded: observed”.
